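Five concentrations, 48 hours, 96-well plates. GI50 marks 50% less growth. TGI is the concentration that stops growth completely.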
What was measured:
Test in all cases: NCI anticancer screen, dose series, 48 h
[1] = tested on: A498 renal
[2] = tested on: COLO 205 colon
[3] = tested on: IGROV1 ovarian
[4] = tested on: MALME-3M melanoma
[5] = tested on: NCI-H23 lung
[6] = tested on: NCI-H522 lung
[7] = tested on: SF-268 CNS
[8] = tested on: SNB-75 CNS
[9] = tested on: TK-10 renal
[10] = tested on: UO-31 renal

Compound	TGI [1] [µM]	TGI [2] [µM]	TGI [3] [µM]	TGI [4] [µM]	TGI [5] [µM]	TGI [6] [µM]	TGI [7] [µM]	TGI [8] [µM]	TGI [9] [µM]	TGI [10] [µM]	GI50 [1] [µM]	GI50 [2] [µM]	GI50 [3] [µM]	GI50 [4] [µM]	GI50 [5] [µM]	GI50 [6] [µM]	GI50 [7] [µM]	GI50 [8] [µM]	GI50 [9] [µM]	GI50 [10] [µM]
CSCC(COC(C)=O)(CSC)c1ccncc1	> 100	> 100	> 100	> 100	> 100	> 100	> 100	> 100	> 100	> 100										
O=C(Nc1ccc(Cl)cc1)c1cc2ccccc2cc1OP(=O)(O)O	19.4	27.8	95.2	7.3	9.95	38.1	40	25.2	14.1	> 100	2.79	14.5	3.81	1.91	2.42	3.29	3.9	2.03	3.65	3.75
O=C(O)c1c[nH]c2c(ccc3[nH]cc(C(=O)O)c(=O)c32)c1=O	> 100	> 100	> 100	> 100	> 100	> 100	> 100	75	> 100	> 100										
Nc1nc(Cl)nc2c1ncn2C1OC(CO)C(O)C1O (stereo not given)	> 100	> 100	> 100	> 100	> 100	> 100	> 100	> 100	> 100	> 100	> 64.4	5.76	> 100	> 100	4.08	> 100	10.7	> 100	> 100	3.32
N/C(=N\C(N)=N\c1nc2ccccc2s1)c1ccnc(Br)c1	41	> 100	> 100	> 100	> 100	> 100	> 100	6.89	> 100	84	5.14	11	3.63	6.22	14.2	3.22	5.88	2.33	52	3.56
COc1ccc2c(c1)C(=O)c1c-2c(OCCN2CCCCC2)nc2ccc(OC)cc12	4.73	11.1	6.58	4.47	7.68	2.11	9.46	11.2	16.7	1.67	1.04	0.723	0.708	1.27	1.12	0.523	0.461	1.27	4.51	0.259
CCCCC1N=CNc2c1ccc1c2[nH]c2ccccc21 (stereo not given)	29.8	3.27	8.18	10.5	11	3.57	29.4	5.54	10.9	21.9										
O=[P+](O)c1cccnc1	> 100	> 100	> 100	> 100	> 100	> 100	> 100	> 100	> 100	> 100										
C/C(CC(=O)Nc1cccc(C)c1C)=N\NC(N)=S	> 100	> 100	> 100	> 100	> 100	> 100	> 100	> 100	> 100	> 100										
O=C1Nc2c(ccc(Cl)c2Cl)/C1=C\c1cc(C(F)(F)F)cc(C(F)(F)F)c1	13.6	4.84	3.52	8.91	21.6	6.47	8.51	7.48	13	8.74	5.59	1.32	0.222	0.795	4.95	1.54	1.86	1.05	4.37	0.485
CS(=O)(=O)c1ccc(-c2cnc(NCc3ccco3)n3cnnc23)cc1	> 100	> 100	> 100	> 100	> 100	> 100	> 100	> 100	> 100	> 100	> 100	28.7	> 100	27.5	> 100	> 100	> 100	> 100	> 100	38.8
CSc1nc(SC)c2c(C)cn(C3OC(C)C(O)C(O)C3O)c2n1 (stereo not given)	74.4	> 100	> 100	> 100	> 100	> 100	> 100	> 100	> 100	> 100										
COC(=O)C1=Cc2cn(S(=O)(=O)c3ccc(C)cc3)c3cccc(c23)C(C=C(C)C)N1C(C)=O (stereo not given)	> 100	18.3	> 100	64.6	> 100	20	> 100	> 100	> 100	> 100										
CN(CCCCN)c1ccc2c(=O)[nH][nH]c(=O)c2c1	> 100	> 100	> 73.6	> 100	5.1	> 100	> 100	> 100	> 100	> 100										
O=C(c1ccccc1)c1c2n(c3c1cc(O)c1ccccc13)CCN2	35.4	3.31	4.84	4.19	12	4.03	9.85	4.76	75.2	31.3	18.3	1.8	2.19	1.97	4.17	1.96	3.19	2.22	23.1	16.2
O=c1sc(-c2nc3ccccc3[nH]2)c(/N=C/c2ccccc2)n1-c1ccccc1	> 100	> 100	> 100	> 100	> 100	> 100	> 100	57.8	> 100	> 100										
CC(C)OC(=O)c1cccnc1/C=N/O	> 100	> 100	> 100	> 100	> 100	> 100	> 100	> 100	> 100	> 100										

Source: PubChem BioAssay (NCI)
